Columns and labels:
Type in all cases: in vivo
[1] = test system: cocklebur (Xanthium strumarium); assay: Preemergence herbicidal activity, cocklebur; settings: soil spray, visual after 3 weeks, 0 no injury, 100 complete kill or no germination
Summary of the method: (§1)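 Visual rating 3 weeks after treatment, 0-100% injury versus untreated pots, where 100 means complete kill or no germination. Soil of seeded pots was sprayed preemergence with aqueous Tween 155 dilutions of acetone/DMSO stocks, up to 4.48 kg/ha. Plants were grown in a greenhouse at about 23-29 °C day/22-28 °C night with ~15 h light.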

[2] = test system: viola (Viola tricolor); assay: Postemergence herbicidal activity, viola; settings: foliar spray, visual after 2 weeks, 0 no injury, 100 complete kill
Summary of the method: (§2)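 Injury rated visually at 2 weeks, 0 (none) to 100% (complete kill), relative to carrier-sprayed controls. Foliar spray applied to 7–21-day-old seedlings at first or second true leaf, with rates in ppm (1 ppm ≈ 1 g/ha) in an aqueous acetone/DMSO/crop oil/surfactant mix.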

[3] = test system: wild poinsettia (Euphorbia heterophylla); assay: Preemergence herbicidal activity, wild poinsettia; settings: soil spray, visual after 3 weeks, 0 no injury, 100 complete kill or no germination
Summary of the method: as §1

[4] = test system: pigweed (Amaranthus retroflexus); assay: Preemergence herbicidal activity, pigweed; settings: soil spray, visual after 3 weeks, 0 no injury, 100 complete kill or no germination
Summary of the method: as §1

[5] = test system: morningglory (Ipomoea hederacea); assay: Preemergence herbicidal activity, morningglory; settings: soil spray, visual after 3 weeks, 0 no injury, 100 complete kill or no germination
Summary of the method: as §1

[6] = test system: giant foxtail (Setaria faberi); assay: Postemergence herbicidal activity, giant foxtail; settings: foliar spray, visual after 2 weeks, 0 no injury, 100 complete kill
Summary of the method: as §2

[7] = test system: velvetleaf (Abutilion theophrasti); assay: Preemergence herbicidal activity, velvetleaf; settings: soil spray, visual after 3 weeks, 0 no injury, 100 complete kill or no germination
Summary of the method: as §1

[8] = test system: wild buckwheat (Polygonum convolvulus); assay: Postemergence herbicidal activity, wild buckwheat; settings: foliar spray, visual after 2 weeks, 0 no injury, 100 complete kill
Summary of the method: as §2

[9] = test system: morningglory (Ipomoea hederacea); assay: Postemergence herbicidal activity, morningglory; settings: foliar spray, visual after 2 weeks, 0 no injury, 100 complete kill
Summary of the method: as §2

[10] = test system: barnyardgrass (Echinochloa crus-galli); assay: Preemergence herbicidal activity, barnyardgrass; settings: soil spray, visual after 3 weeks, 0 no injury, 100 complete kill or no germination
Summary of the method: as §1

[11] = test system: lambsquarters (Chenopodium album); assay: Preemergence herbicidal activity, lambsquarters; settings: soil spray, visual after 3 weeks, 0 no injury, 100 complete kill or no germination
Summary of the method: as §1

[12] = test system: blackgrass (Alopecurus myosuroides); assay: Postemergence herbicidal activity, blackgrass; settings: foliar spray, visual after 2 weeks, 0 no injury, 100 complete kill
Summary of the method: as §2

[13] = test system: wild oats (Avena fatua); assay: Preemergence herbicidal activity, wild oats; settings: soil spray, visual after 3 weeks, 0 no injury, 100 complete kill or no germination
Summary of the method: as §1

[14] = test system: blackgrass (Alopecurus myosuroides); assay: Preemergence herbicidal activity, blackgrass; settings: soil spray, visual after 3 weeks, 0 no injury, 100 complete kill or no germination
Summary of the method: as §1

[15] = test system: giant foxtail (Setaria faberi); assay: Preemergence herbicidal activity, giant foxtail; settings: soil spray, visual after 3 weeks, 0 no injury, 100 complete kill or no germination
Summary of the method: as §1

[16] = test system: cocklebur (Xanthium strumarium); assay: Postemergence herbicidal activity, cocklebur; settings: foliar spray, visual after 2 weeks, 0 no injury, 100 complete kill
Summary of the method: as §2

[17] = test system: lambsquarters (Chenopodium album); assay: Postemergence herbicidal activity, lambsquarters; settings: foliar spray, visual after 2 weeks, 0 no injury, 100 complete kill
Summary of the method: as §2

[18] = test system: Rox orange sorghum (Sorghum bicolor); assay: Preemergence herbicidal activity, Rox orange sorghum; settings: soil spray, visual after 3 weeks, 0 no injury, 100 complete kill or no germination
Summary of the method: as §1

[19] = test system: crabgrass (Digitaria sanguinalis); assay: Preemergence herbicidal activity, crabgrass; settings: soil spray, visual after 3 weeks, 0 no injury, 100 complete kill or no germination
Summary of the method: as §1

[20] = test system: Rox orange sorghum (Sorghum bicolor); assay: Postemergence herbicidal activity, Rox orange sorghum; settings: foliar spray, visual after 2 weeks, 0 no injury, 100 complete kill
Summary of the method: as §2

[21] = test system: chickweed (Stellaria media); assay: Postemergence herbicidal activity, chickweed; settings: foliar spray, visual after 2 weeks, 0 no injury, 100 complete kill
Summary of the method: as §2

[22] = test system: velvetleaf (Abutilion theophrasti); assay: Postemergence herbicidal activity, velvetleaf; settings: foliar spray, visual after 2 weeks, 0 no injury, 100 complete kill
Summary of the method: as §2

[23] = test system: pigweed (Amaranthus retroflexus); assay: Postemergence herbicidal activity, pigweed; settings: foliar spray, visual after 2 weeks, 0 no injury, 100 complete kill
Summary of the method: as §2

[24] = test system: wild oats (Avena fatua); assay: Postemergence herbicidal activity, wild oats; settings: foliar spray, visual after 2 weeks, 0 no injury, 100 complete kill
Summary of the method: as §2

Structure (SMILES) | VIOTR postemergence injury score 0-100 ([2]; 15.6 ppm) [%] | SETFA postemergence injury score 0-100 ([6]; 15.6 ppm) [%] | POLCO postemergence injury score 0-100 ([8]; 15.6 ppm) [%] | IPOHE postemergence injury score 0-100 ([9]; 15.6 ppm) [%] | ALOMY postemergence injury score 0-100 ([12]; 15.6 ppm) [%] | XANST postemergence injury score 0-100 ([16]; 15.6 ppm) [%] | CHEAL postemergence injury score 0-100 ([17]; 15.6 ppm) [%] | SORBI postemergence injury score 0-100 ([20]; 15.6 ppm) [%] | STEME postemergence injury score 0-100 ([21]; 15.6 ppm) [%] | ABUTH postemergence injury score 0-100 ([22]; 15.6 ppm) [%] | AMARE postemergence injury score 0-100 ([23]; 15.6 ppm) [%] | AVEFA postemergence injury score 0-100 ([24]; 15.6 ppm) [%] | XANST preemergence injury score 0-100 ([1]; 35 g/Ha) [%] | EPHHL preemergence injury score 0-100 ([3]; 35 g/Ha) [%] | AMARE preemergence injury score 0-100 ([4]; 35 g/Ha) [%] | IPOHE preemergence injury score 0-100 ([5]; 35 g/Ha) [%] | ABUTH preemergence injury score 0-100 ([7]; 35 g/Ha) [%] | ECHCG preemergence injury score 0-100 ([10]; 35 g/Ha) [%] | CHEAL preemergence injury score 0-100 ([11]; 35 g/Ha) [%] | AVEFA preemergence injury score 0-100 ([13]; 35 g/Ha) [%] | further results
CCOc1cscc1S(=O)(=O)Nc1nc2nc(OC)cc(OC)n2n1 [Compound 12] | 80 | 95 | 85 | 95 | 60 | 90 | 90 | 95 | 95 | 95 | 95 | 85 |  |  |  |  |  |  |  |  | XANST preemergence injury score 0-100 ([1]; 8.8 g/Ha): 90%; EPHHL preemergence injury score 0-100 ([3]; 8.8 g/Ha): 95%; AMARE preemergence injury score 0-100 ([4]; 8.8 g/Ha): 100%; IPOHE preemergence injury score 0-100 ([5]; 8.8 g/Ha): 80%; ABUTH preemergence injury score 0-100 ([7]; 8.8 g/Ha): 90%; ECHCG preemergence injury score 0-100 ([10]; 8.8 g/Ha): 100%; CHEAL preemergence injury score 0-100 ([11]; 8.8 g/Ha): 100%; AVEFA preemergence injury score 0-100 ([13]; 8.8 g/Ha): 100%; ALOMY preemergence injury score 0-100 ([14]; 8.8 g/Ha): 100%; SETFA preemergence injury score 0-100 ([15]; 8.8 g/Ha): 100%; SORBI preemergence injury score 0-100 ([18]; 8.8 g/Ha): 100%; DIGSA preemergence injury score 0-100 ([19]; 8.8 g/Ha): 100%
COc1cnc(OC)n2nc(NS(=O)(=O)c3ccsc3CC(=O)O)nc12 [Compound 6, N-(5,8-dimethoxy[1,2,4]triazolo[1,5-c]pyrimidin-2-yl)-2-carboxymethylthiophene-3-sulfonamide] |  |  |  |  |  |  |  |  |  |  |  |  | 70 | 70 | 100 | 80 | 80 | 80 | 99 | 80 | VIOTR postemergence injury score 0-100 ([2]; 7.8 ppm): 85%; SETFA postemergence injury score 0-100 ([6]; 7.8 ppm): 98%; POLCO postemergence injury score 0-100 ([8]; 7.8 ppm): 85%; IPOHE postemergence injury score 0-100 ([9]; 7.8 ppm): 85%; ALOMY postemergence injury score 0-100 ([12]; 7.8 ppm): 80%; ALOMY preemergence injury score 0-100 ([14]; 35 g/Ha): 75%; SETFA preemergence injury score 0-100 ([15]; 35 g/Ha): 100%; XANST postemergence injury score 0-100 ([16]; 7.8 ppm): 95%; CHEAL postemergence injury score 0-100 ([17]; 7.8 ppm): 80%; SORBI preemergence injury score 0-100 ([18]; 35 g/Ha): 100%; DIGSA preemergence injury score 0-100 ([19]; 35 g/Ha): 100%; SORBI postemergence injury score 0-100 ([20]; 7.8 ppm): 80%; STEME postemergence injury score 0-100 ([21]; 7.8 ppm): 80%; ABUTH postemergence injury score 0-100 ([22]; 7.8 ppm): 90%; AMARE postemergence injury score 0-100 ([23]; 7.8 ppm): 100%; AVEFA postemergence injury score 0-100 ([24]; 7.8 ppm): 70%
COc1cc(OC)n2nc(NS(=O)(=O)c3sc(Cl)cc3OC)nc2n1 [Compound 4] | 60 | 85 | 90 | 60 | 70 | 60 | 90 | 70 | 60 | 70 | 100 | 60 | 0 | 40 | 100 | 50 | 70 | 0 | 80 | 60 | ALOMY preemergence injury score 0-100 ([14]; 35 g/Ha): 95%; SETFA preemergence injury score 0-100 ([15]; 35 g/Ha): 90%; SORBI preemergence injury score 0-100 ([18]; 35 g/Ha): 80%; DIGSA preemergence injury score 0-100 ([19]; 35 g/Ha): 90%
COc1csc(Cl)c1S(=O)(=O)Nc1nc2c(OC)cnc(OC)n2n1 [Compound 18] | 100 | 90 | 95 | 75 | 70 | 100 | 90 | 100 | 90 | 85 | 100 | 95 |  |  |  |  |  |  |  |  | XANST preemergence injury score 0-100 ([1]; 4.4 g/Ha): 90%; EPHHL preemergence injury score 0-100 ([3]; 4.4 g/Ha): 90%; AMARE preemergence injury score 0-100 ([4]; 4.4 g/Ha): 95%; IPOHE preemergence injury score 0-100 ([5]; 4.4 g/Ha): 80%; ABUTH preemergence injury score 0-100 ([7]; 4.4 g/Ha): 90%; ECHCG preemergence injury score 0-100 ([10]; 4.4 g/Ha): 100%; CHEAL preemergence injury score 0-100 ([11]; 4.4 g/Ha): 100%; AVEFA preemergence injury score 0-100 ([13]; 4.4 g/Ha): 80%; ALOMY preemergence injury score 0-100 ([14]; 4.4 g/Ha): 100%; SETFA preemergence injury score 0-100 ([15]; 4.4 g/Ha): 100%; SORBI preemergence injury score 0-100 ([18]; 4.4 g/Ha): 100%; DIGSA preemergence injury score 0-100 ([19]; 4.4 g/Ha): 98%
